Assay results as given in patent publication US8785460B2, “Tricyclic compounds and use thereof” (Takeda Pharmaceutical Company Limited, priority 2008, dated 2014).
pIC50: −log10 of the molar value.

Molecular target: T1, human CRF1 receptor (Homo sapiens, UniProt P34998)
T1 construct: expressed in transfected cells; host or cells: CHO cells (membrane fraction)
T1 sequence (P34998 24-415): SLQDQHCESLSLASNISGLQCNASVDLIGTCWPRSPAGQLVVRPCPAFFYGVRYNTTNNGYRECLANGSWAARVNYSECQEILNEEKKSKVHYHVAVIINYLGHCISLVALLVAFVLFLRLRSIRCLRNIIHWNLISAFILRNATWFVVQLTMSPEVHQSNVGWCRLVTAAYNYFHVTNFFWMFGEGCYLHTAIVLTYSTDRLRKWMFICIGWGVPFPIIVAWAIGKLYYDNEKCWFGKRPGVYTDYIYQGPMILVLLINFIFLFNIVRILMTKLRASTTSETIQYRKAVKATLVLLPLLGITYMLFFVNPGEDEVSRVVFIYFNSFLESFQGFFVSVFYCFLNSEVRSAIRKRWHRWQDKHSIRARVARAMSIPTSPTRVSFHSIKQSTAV
Assay: Measurement of CRF Binding Inhibitory Rate (receptor binding experiment with 125I-CRF)
Conditions: human CRF1 receptor expressing CHO cellular membrane fraction, 50 pM 125I-CRF, room temperature 1.5 hr, 0.05 nM to 10 μM of compound; read-out: IC50 values (CRF binding inhibition)
Procedure: Measurement of CRF Binding Inhibitory Rate
A receptor binding experiment was carried out using a human CRF1 receptor expressing CHO cellular membrane fraction and ovine CRF, [^125I]-tyr^0(^125I-CRF). 1000 nM of a test compound was incubated with 1 μg of human CREF receptor expressing CHO cellular membrane fraction and 50 pM of ^125I-CRF in a binding assay buffer (50 mM Tris-HCl, 5 mM EDTA, 10 mM MgCl2, 0.05% CHAPS, 0.1% BSA, 0.5 mM PMSF, 0.1 μg/mL pepstatin, 20 μg/mL leupeptin, pH 7.5). In addition, for measuring nonspecific binding (NSB), 0.1 μM unlabelled human Urocortin was incubated with 5 μg of human CRE receptor expressing CHO cellular membrane fraction and 50 pM of ^125I-CRF in a binding assay buffer. After a binding reaction was carried out at room temperature for 1.5 hr, the membrane was entrapped on a glass filter (UniFilter plate GF-C/Perkin Elmer) by suction filtration using a cell harvester (Perkin Elmer), and washed with ice-cooled 50 mM Tris-HCl (pH 7.5). After drying the glass filter, a liquid scintillation cocktail (Microscinti 0, Perkin Elmer) was added, and the radioactivity of ^125I-CRF remaining on a glass filter was measured using Topcount (Perkin Elmer).
(TB−SB)/(TB−NSB)×100 (SB: radioactivity when a compound is added, TB: maximum binding radioactivity, NSB: nonspecific binding radioactivity) were calculated to obtain binding inhibitory rates under the range of the presence from 0.05 nM to 10 μM of each compound. The IC50 values were calculated by using GraphPad Prism software.

Row | SMILES | pIC50
1 | CCC(NC(C)=O)c1ccc(Cl)c2nc3n(c12)CCCN3c1c(C)cc(Cl)cc1Cl (stereo not shown) [Example 377, N-{1-[9-Chloro-1-(2,4-dichloro-6-methylphenyl)-1,2,3,4-tetrahydropyrimido[1,2-a]benzimidazol-6-yl]propyl}acetamide] | > 6.00
2 | CCC(O)c1ccc(Cl)c2nc3n(c12)CCCN3c1c(C)cc(Cl)cc1Cl (stereo not shown) [Example 379, 1-[9-Chloro-1-(2,4-dichloro-6-methylphenyl)-1,2,3,4-tetrahydropyrimido[1,2-a]benzimidazol-6-yl]propan-1-ol] | > 6.00
3 | C=CCCC(O)c1ccc(Cl)c2nc3n(c12)CCCN3c1c(C)cc(Cl)cc1Cl (stereo not shown) [Example 381, 1-[9-Chloro-1-(2,4-dichloro-6-methylphenyl)-1,2,3,4-tetrahydropyrimido[1,2-a]benzimidazol-6-yl]pent-4-en-1-ol] | > 6.00
4 | C=CCC(O)c1ccc(Cl)c2nc3n(c12)CCCN3c1c(C)cc(Cl)cc1Cl (stereo not shown) [Example 383, 1-[9-Chloro-1-(2,4-dichloro-6-methylphenyl)-1,2,3,4-tetrahydropyrimido[1,2-a]benzimidazol-6-yl]but-3-en-1-ol] | > 6.00
5 | CCC(c1ccc(Cl)c2nc3n(c12)CCCN3c1ccc(Cl)cc1Cl)N(C)S(C)(=O)=O (stereo not shown) [Example 385, N-{1-[9-Chloro-1-(2,4-dichlorophenyl)-1,2,3,4-tetrahydropyrimido[1,2-a]benzimidazol-6-yl]propyl}-N-methylmethanesulfonamide] | > 6.00
6 | Cc1cc(Cl)cc(Cl)c1N1CCCn2c1nc1c(Cl)ccc(C(O)CC3CC3)c12 (stereo not shown) [Example 386, 1-[9-Chloro-1-(2,4-dichloro-6-methylphenyl)-1,2,3,4-tetrahydropyrimido[1,2-a]benzimidazol-6-yl]-2-cyclopropylethanol] | > 6.00
7 | CCC(c1ccc(Cl)c2nc3n(c12)CCCN3c1ccc(Cl)cc1Cl)N(C)C(C)=O (stereo not shown) [Example 388, N-{1-[9-Chloro-1-(2,4-dichlorophenyl)-1,2,3,4-tetrahydropyrimido[1,2-a]benzimidazol-6-yl]propyl}-N-methylacetamide] | > 6.00
8 | CCC(c1ccc(Cl)c2nc3n(c12)CCCN3c1ccc(Cl)cc1Cl)C(F)F (stereo not shown) [Example 403, 9-Chloro-1-(2,4-dichlorophenyl)-6-[1-(difluoromethyl)propyl]-1,2,3,4-tetrahydropyrimido[1,2-a]benzimidazole] | > 6.00
9 | CCC(c1ccc(Cl)c2nc3n(c12)CCCN3c1ccc(Cl)cc1Cl)C(C)O (stereo not shown) [Example 404, 3-[9-Chloro-1-(2,4-dichlorophenyl)-1,2,3,4-tetrahydropyrimido[1,2-a]benzimidazol-6-yl]pentan-2-ol] | > 6.00
10 | CCC(C(C)=O)c1ccc(Cl)c2nc3n(c12)CCCN3c1ccc(Cl)cc1Cl (stereo not shown) [Example 405, 3-[9-Chloro-1-(2,4-dichlorophenyl)-1,2,3,4-tetrahydropyrimido[1,2-a]benzimidazol-6-yl]pentan-2-one] | > 6.00
11 | FC(F)(F)C(Cl)c1ccc(Cl)c2nc3n(c12)CCCN3c1c(Cl)cc(Cl)cc1Cl (stereo not shown) [Example 412, 9-Chloro-6-(1-chloro-2,2,2-trifluoroethyl)-1-(2,4,6-trichlorophenyl)-1,2,3,4-tetrahydropyrimido[1,2-a]benzimidazole] | > 6.00
12 | NC(c1ccc(Cl)c2nc3n(c12)CCCN3c1c(Cl)cc(Cl)cc1Cl)C(F)(F)F (stereo not shown) [Example 414, 1-[9-Chloro-1-(2,4,6-trichlorophenyl)-1,2,3,4-tetrahydropyrimido[1,2-a]benzimidazol-6-yl]-2,2,2-trifluoroethanamine] | > 6.00
13 | CC(=O)NC(c1ccc(Cl)c2nc3n(c12)CCCN3c1c(Cl)cc(Cl)cc1Cl)C(F)(F)F (stereo not shown) [Example 415, N-{1-[9-Chloro-1-(2,4,6-trichlorophenyl)-1,2,3,4-tetrahydropyrimido[1,2-a]benzimidazol-6-yl]-2,2,2-trifluoroethyl}acetamide] | > 6.00
14 | CCC(OC(=O)CC(C)(C)O)c1ccc(Cl)c2nc3n(c12)CCCN3c1ccc(Cl)cc1Cl (stereo not shown) [Example 444, 1-[9-Chloro-1-(2,4-dichlorophenyl)-1,2,3,4-tetrahydropyrimido[1,2-a]benzimidazol-6-yl]propyl 3-hydroxy-3-methylbutanoate] | > 6.00
15 | FC(F)COC(c1ccc(Cl)c2nc3n(c12)CCCN3c1ccc(Cl)cc1Cl)C1CC1 (stereo not shown) [Example 464, 9-Chloro-6-[cyclopropyl(2,2-difluoroethoxy)methyl]-1-(2,4-dichlorophenyl)-1,2,3,4-tetrahydropyrimido[1,2-a]benzimidazole] | > 6.00
16 | COc1ccc(N2CCCn3c2nc2c(Cl)ccc(C(O)(C4CC4)C4CC4)c23)c(Cl)c1 [Example 465, [9-Chloro-1-(2-chloro-4-methoxyphenyl)-1,2,3,4-tetrahydropyrimido[1,2-a]benzimidazol-6-yl](dicyclopropyl)methanol] | > 6.00
17 | CCC(OCC(F)(F)F)c1ccc(Cl)c2nc3n(c12)CCCN3c1ccc(OC)cc1Cl (stereo not shown) [Example 466, 9-Chloro-1-(2-chloro-4-methoxyphenyl)-6-[1-(2,2,2-trifluoroethoxy)propyl]-1,2,3,4-tetrahydropyrimido[1,2-a]benzimidazole] | > 6.00
18 | CCOC(c1ccc(Cl)c2nc3n(c12)CCCN3c1ccc(OC)cc1Cl)C(F)(F)F (stereo not shown) [Example 470] | > 6.00
19 | COc1ccc(N2CCCn3c2nc2c(Cl)ccc(C(OC)C(F)(F)F)c23)c(Cl)c1 (stereo not shown) [Example 471, 9-Chloro-1-(2-chloro-4-methoxyphenyl)-6-(2,2,2-trifluoro-1-methoxyethyl)-1,2,3,4-tetrahydropyrimido[1,2-a]benzimidazole] | > 6.00
20 | COc1ccc(N2CCCn3c2nc2c(Cl)ccc(C(OCC(F)F)C4CC4)c23)c(Cl)c1 (stereo not shown) [Example 472, 9-Chloro-1-(2-chloro-4-methoxyphenyl)-6-[cyclopropyl(2,2-difluoroethoxy)methyl]-1,2,3,4-tetrahydropyrimido[1,2-a]benzimidazole] | > 6.00
21 | CCC(OC1CC1)c1ccc(Cl)c2nc3n(c12)CCCN3c1ccc(OC)cc1Cl (stereo not shown) [Example 474, 9-Chloro-1-(2-chloro-4-methoxyphenyl)-6-[1-(cyclopropyloxy)propyl]-1,2,3,4-tetrahydropyrimido[1,2-a]benzimidazole] | > 6.00
22 | CC(=O)NC(c1ccc(Cl)c2nc3n(c12)CCCN3c1ccc(Cl)cc1Cl)C(F)(F)F (stereo not shown) [Example 476, N-{1-[9-chloro-1-(2,4-dichlorophenyl)-1,2,3,4-tetrahydropyrimido[1,2-a]benzimidazol-6-yl]-2,2,2-trifluoroethyl}acetamide] | > 6.00
23 | Cc1cc(S(C)(=O)=O)ccc1N1CCCn2c1nc1c(Cl)ccc(C(OC(F)F)C(F)(F)F)c12 (stereo not shown) [Example 477, 9-Chloro-6-[1-(difluoromethoxy)-2,2,2-trifluoroethyl]-1-[2-methyl-4-(methylsulfonyl)phenyl]-1,2,3,4-tetrahydropyrimido[1,2-a]benzimidazole] | > 6.00
24 | CCC(OC(=O)C(C)C)c1ccc(Cl)c2nc3n(c12)CCCN3c1ccc(Cl)cc1Cl (stereo not shown) [Example 480, 1-[9-Chloro-1-(2,4-dichlorophenyl)-1,2,3,4-tetrahydropyrimido[1,2-a]benzimidazol-6-yl]propyl 2-methylpropanoate] | > 6.00
25 | CCC(OC(=O)C(C)(C)C)c1ccc(Cl)c2nc3n(c12)CCCN3c1ccc(Cl)cc1Cl (stereo not shown) [Example 481, 1-[9-Chloro-1-(2,4-dichlorophenyl)-1,2,3,4-tetrahydropyrimido[1,2-a]benzimidazol-6-yl]propyl 2,2-dimethylpropanoate] | > 6.00
